Reference: US6043248A, “Alpha-substituted pyrimidine-thioalkyl and alkylether compounds as inhibitors of viral reverse transcriptase” (priority 1997, dated 2000)
pIC50: −log10 of the molar value. Where a name gives a salt, the structure may show the parent alone.

Columns and labels:
[1] = biological target: T1, P236L viral reverse transcriptase (Human immunodeficiency virus type 1 group M subtype B, UniProt P04585, P823L); assay: inhibition of viral reverse transcriptase (P236L), cell free assay; assay type: biochemical; details: IC50 (Table I, P236L), 30 minutes at 37° C.
T1 construct: P236L viral reverse transcriptase is obtained by PNAS 90: 4713-4717 (1993); made in house
How it was run: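 E. coli-expressed wild-type or P236L RT extracts incubated with inhibitor 30 min at 37 °C in Tris pH 8.3 with MgCl₂, NaCl, DTT, NP-40, 10 μM [35S]-dNTP, poly rC/rG template and oligo dG/dT primer. Incorporated label counted on DE81 paper; reported as % inhibition and/or IC50.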

[2] = biological target: T2, viral reverse transcriptase (Wild Type) (Human immunodeficiency virus type 1 group M subtype B, UniProt P04585); assay: inhibition of viral reverse transcriptase (Wild Type), cell free assay; assay type: biochemical; details: for pIC50: 30 minutes at 37° C., read-out: IC50 (Table II, Wild Type)
T2 construct: Viral reverse transcriptase (Wild Type) is found in extracts from bacterial clones; made in house; host or cells: Escherichia coli
Description: The utility of the pyrimidine-thioalkyl and alkylether anti-AIDS compounds of Formula IA of this invention can be determined by their ability to inhibit viral reverse transcriptase, an enzyme essential for human immunodeficiency virus replication. This enzyme has characteristics which differentiate it from other known cellular polymerases and it is a unique enzyme which is not found in uninfected cells. Viral reverse transcriptase (Wild Type) is found in extracts from bacterial clones prepared according to the procedure described in AIDS Virus Reverse Transcriptase defined by high level expression in Escherichia coli, EMBO J. 6:3133-3137 (1987). P236L viral reverse transcriptase is obtained by PNAS 90: 4713-4717 (1993). Inhibition of this enzyme is determined in a cell free assay which measures the level of radioactive precursors incorporated into DNA. Extracts prepared according to the procedure of Science, 1125-1129 (1981) are incubated in a mixture of inhibitor, 20 mM dithiothreitol, 60 mM sodium chloride, 0.05% NP-40, 10 mM magnesium chloride, 50 mM Tris pH 8.3, 10 μM [^35 S]-labeled deoxynuleoside-5'-triphosphate, 10 μg/ml RNA template (poly rC or poly rG) and 5 μg/ml DNA primer (oligo dG or oligo dT) for 30 minutes at 37° C. Incorporation of radio-labeled percursor is determined by spotting aliquots of the reaction mixture on DE81 paper, washing the papers to remove unincorporated percursor, drying and determining counts. The results (IC50 means the concentration, in μM of drug, required to inhibit the reverse transcriptase activity (P236L and Wild Type) to the extent of 50%) of various assay(s) are combined and reported as % inhibition and/or IC50 (calculated) in Table I (P236L) and Table II (Wild Type).

Structure (SMILES) | pIC50 [1] | pIC50 [2] | inhibition at 50 µM ([2]; @ 50 μM) [%]
CC(Sc1nc(N)cc(Cl)n1)c1cc(C(C)(C)C)ccn1 (stereo not shown) [Example 210, 4-Amino-6-chloro-2-(1-(4-(1,1-dimethyl)ethyl-2-pyridyl)ethyl)thio-pyrimidine] | 7.00 | 7.10 | 
CC(Sc1nc(N)cc(Cl)n1)c1ccccn1 (stereo not shown) [Example 211, 4-Amino-6-chloro-2-(1-(2-pyridyl)ethyl)thio-pyrimidine] | 7.34 | 6.72 | 
CC(Sc1nc(N)cc(Cl)n1)c1cc(C#N)ccn1 (stereo not shown) [Example 214, 4-Amino-6-chloro-2-(1-(4-cyano-2-pyridyl)ethyl)thio-pyrimidine] | 6.75 | 6.31 | 
Cc1ccnc(C(C)Sc2nc(N)cc(Cl)n2)c1 (stereo not shown) [Example 215, 4-Amino-6-chloro-2-(1-(4-methyl-2-pyridyl)ethyl)thio-pyrimidine hydrochloride] | 7.48 | 7.77 | 
CCc1ccnc(C(C)Sc2nc(N)cc(Cl)n2)c1 (stereo not shown) [Example 216, 4-Amino-6-chloro-2-(1-(4-ethyl-2-pyridyl)ethyl)thio-pyrimidine] | 7.52 | 7.57 | 
COC(=O)C(Sc1nc(N)cc(Cl)n1)c1cc(C)ccn1 (stereo not shown) [Example 220, 4-Amino-6-chloro-2-(1-(4-methyl-2-pyridyl)-1-carbomethoxy-methyl)thio-pyrimidine] | 4.30 |  | 19
C=C(C)c1ccnc(C(C)Sc2nc(N)cc(Cl)n2)c1 (stereo not shown) [Example 221, 4-Amino-6-chloro-2-(1-(4-(1-methylethenyl)-2-pyridyl)ethyl)thio-pyrimidine] | 7.41 | 7.72 | 
CC(C)c1ccnc(C(C)Sc2nc(N)cc(Cl)n2)c1 (stereo not shown) [Example 223, 4-Amino-6-chloro-2-(1-(4-(1-methylethyl)-2-pyridyl)ethyl)thio-pyrimidine] | 7.17 | 7.22 | 
CC(C)c1ccnc(C(C)Sc2nc(N)c(Br)c(Cl)n2)c1 (stereo not shown) [Example 225] | 7.17 | 7.00 | 
CC(Sc1nc(N)cc(Cl)n1)c1cc2ccccc2cn1 (stereo not shown) [Example 230, 4-Amino-6-chloro-2-(1-(3-isoquinolyl)ethyl)thio-pyrimidine] | 7.41 | 7.72 | 
CC(Sc1nc(N)cc(Cl)n1)c1cc2c(cn1)CCCC2 (stereo not shown) [Example 233, 4-Amino-6-chloro-2-(1-(3-(5,6,7,8-tetrahydroisoquinolyl))ethyl)thiopyrimidine] | 7.17 | 7.17 | 
CC(Sc1nc(N)cc(C(F)(F)F)n1)c1cc2c(cn1)CCCC2 (stereo not shown) [Example 234, 4-Amino-6-trifluoromethyl-2-(1-(3-(5,6,7,8-tetrahydro-isoquinolyl))ethyl)thio-pyrimidine] | 6.77 | 6.88 | 
CC(Sc1nc(N)cc(Cl)n1)c1cc2ccoc2c(Cl)n1 (stereo not shown) [Example 237, 4-Amino-6-chloro-2-(1-(7-chlorofuro[2,3c]pyridine-5-yl)ethyl)thio-pyrimidine] | 7.59 | 7.82 | 
CC(Sc1nc(N)cc(Cl)n1)c1cc2ccoc2cn1 (stereo not shown) [Example 238, 4-Amino-6-chloro-2-(1-(furo[2,3-c]pyridin-5-yl)ethyl)thio-pyrimidine] | 7.96 | 8.15 | 
CC(Sc1nc(N)cc(C(F)(F)F)n1)c1cc2ccoc2cn1 (stereo not shown) [Example 239, 4-Amino-6-trifluoromethyl-2-(1-(furo[2,3-c]pyridin-5-yl)ethyl)thio-pyrimidine] | 7.06 | 7.30 | 
Cc1cc2cc(C(C)Sc3nc(N)cc(Cl)n3)nc(Cl)c2o1 (stereo not shown) [Example 240, 4-Amino-6-chloro-2-(1-(7-chloro-2-methylfuro[2,3c]pyridin-5-yl)ethyl)thio-pyrimidine] | 6.94 | 6.42 | 
Cc1cc2cc(C(C)Sc3nc(N)cc(C(F)(F)F)n3)nc(Cl)c2o1 (stereo not shown) [Example 241, 4-Amino-6-trifluoromethyl-2-(1-(7-chloro-2-methylfuro[2,3c]pyridine-5-yl)ethyl)thio-pyrimidine] | 6.48 | 7.09 | 
